In data set [1] the test system is MCF7. The data set can be described thus: Induction of apoptosis in human MCF7 cells assessed as increase in cleaved caspase-9 protein expression at 20 to 40 uM incubated for 72 hrs by Western blot analysis. In kind it is functional, cell-based. The settings on record: dose microM 20-40, time 72.0 hrs. For orientation: Immunoblotting shows a protein as a band on a membrane.

In another data set the test system is A549. Kind of data set: Antiproliferative activity against human A549 cells assessed as cell growth inhibition after 72 hrs by sulforhodamine B assay. In kind it is functional, cell-based. The settings on record: A549, 72 h.
The next data set relates to KB. Kind of data set: Antiproliferative activity against human KB cells assessed as cell growth inhibition after 72 hrs by sulforhodamine B assay. In kind it is functional, cell-based. Background: The SRB assay estimates cell density from bound dye.
The target in data set [2] is DNA topoisomerase 2-alpha (Homo sapiens) (UniProt P11388). Kind of data set: Inhibition of recombinant human topoisomerase-2alpha assessed as decrease in relaxation/nicking of kinetoplast DNA using kDNA as substrate at 30 uM after 15 mins by ethidium bromide staining based agarose gel electrophoresis analysis.
Chain of DNA topoisomerase 2-alpha (Homo sapiens) (P11388 whole entry): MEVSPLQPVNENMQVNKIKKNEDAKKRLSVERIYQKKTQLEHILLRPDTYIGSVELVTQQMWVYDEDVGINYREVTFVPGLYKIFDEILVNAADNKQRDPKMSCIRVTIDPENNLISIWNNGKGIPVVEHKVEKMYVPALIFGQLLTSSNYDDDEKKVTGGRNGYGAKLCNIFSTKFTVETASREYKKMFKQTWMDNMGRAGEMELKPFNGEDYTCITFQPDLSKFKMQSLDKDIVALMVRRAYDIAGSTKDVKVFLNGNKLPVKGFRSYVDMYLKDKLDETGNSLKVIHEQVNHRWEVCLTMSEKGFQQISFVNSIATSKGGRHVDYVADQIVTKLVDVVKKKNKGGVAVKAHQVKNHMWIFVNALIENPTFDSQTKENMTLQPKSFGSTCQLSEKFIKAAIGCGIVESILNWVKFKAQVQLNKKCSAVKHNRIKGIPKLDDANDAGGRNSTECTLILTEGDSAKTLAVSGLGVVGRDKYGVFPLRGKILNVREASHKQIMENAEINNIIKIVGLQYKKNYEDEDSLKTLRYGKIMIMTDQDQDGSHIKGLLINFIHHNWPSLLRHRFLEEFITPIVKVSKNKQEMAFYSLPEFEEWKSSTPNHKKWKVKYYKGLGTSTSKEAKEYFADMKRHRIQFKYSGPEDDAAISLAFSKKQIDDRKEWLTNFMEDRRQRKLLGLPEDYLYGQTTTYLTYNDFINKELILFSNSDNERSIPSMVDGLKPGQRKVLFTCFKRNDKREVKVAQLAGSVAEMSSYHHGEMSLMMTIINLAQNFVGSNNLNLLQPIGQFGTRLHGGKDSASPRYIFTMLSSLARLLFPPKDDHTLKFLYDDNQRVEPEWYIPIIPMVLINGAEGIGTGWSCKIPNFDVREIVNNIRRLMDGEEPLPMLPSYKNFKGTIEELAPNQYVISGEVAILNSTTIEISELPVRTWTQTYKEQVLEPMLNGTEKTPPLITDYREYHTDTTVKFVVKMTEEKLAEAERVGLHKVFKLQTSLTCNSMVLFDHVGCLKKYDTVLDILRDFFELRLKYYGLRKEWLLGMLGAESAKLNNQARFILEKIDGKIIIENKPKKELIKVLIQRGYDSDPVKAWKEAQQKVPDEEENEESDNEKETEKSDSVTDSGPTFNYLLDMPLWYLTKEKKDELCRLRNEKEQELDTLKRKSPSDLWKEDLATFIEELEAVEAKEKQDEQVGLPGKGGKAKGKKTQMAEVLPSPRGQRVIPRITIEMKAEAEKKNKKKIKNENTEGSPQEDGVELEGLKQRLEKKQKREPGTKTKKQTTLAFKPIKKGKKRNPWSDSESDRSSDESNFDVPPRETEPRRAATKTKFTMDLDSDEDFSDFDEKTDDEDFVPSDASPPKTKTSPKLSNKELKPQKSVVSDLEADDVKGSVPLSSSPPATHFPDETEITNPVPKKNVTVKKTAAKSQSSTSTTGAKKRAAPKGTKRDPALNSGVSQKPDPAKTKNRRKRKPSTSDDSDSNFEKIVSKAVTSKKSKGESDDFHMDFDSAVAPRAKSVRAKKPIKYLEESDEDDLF
The test system of data set [3] is MCF7. Kind of data set: Antiproliferative activity against human MCF7 cells assessed as cell killing at 30 uM after 72 hrs by MTT assay. In kind it is functional. In general terms: Tetrazolium dyes change colour on reduction, which living cells bring about.
For another data set, the system named is MDA-MB-231. Kind of data set: Antiproliferative activity against human MDA-MB-231 cells assessed as cell growth inhibition after 72 hrs by sulforhodamine B assay. In kind it is functional, cell-based. The settings on record: MDA-MB-231, 72 h.
The test system of data set [4] is MCF7. Kind of data set: Antiproliferative activity against human MCF7 cells assessed as cell growth inhibition after 72 hrs by sulforhodamine B assay. The settings on record: MCF7, 72 h. In kind it is functional, cell-based.
Data set [5] has as its target DNA topoisomerase 2-alpha (Homo sapiens) (UniProt P11388). Kind of data set: Inhibition of recombinant human topoisomerase-2alpha assessed as decrease in relaxation/nicking of kinetoplast DNA using kDNA as substrate after 15 mins by ethidium bromide staining based agarose gel electrophoresis analysis. The settings on record: dose microM 30-100, time 15.0 min.
Data set [6] is described as follows: Cytotoxicity against human MCF-10A cells assessed as cell viability at 30 uM after 72 hrs by MTT assay. In kind it is cell-based. The settings on record: read-out: Activity.
The subject of data set [7] is MCF7. The data set can be described thus: Modulation of DNA repair related gene expression in human MCF7 cells at 40 uM after 24 hrs by cDNA microarray analysis. In kind it is functional, cell-based.
Data set [8] in a line: Antiproliferative activity against human KB-VIN cells assessed as cell growth inhibition after 72 hrs by sulforhodamine B assay. In kind it is functional, cell-based. The settings on record: KBVIN.
Data set [9] concerns the target T1, DNA topoisomerase 1 (Homo sapiens) (UniProt P11387).
T1 sequence (whole entry): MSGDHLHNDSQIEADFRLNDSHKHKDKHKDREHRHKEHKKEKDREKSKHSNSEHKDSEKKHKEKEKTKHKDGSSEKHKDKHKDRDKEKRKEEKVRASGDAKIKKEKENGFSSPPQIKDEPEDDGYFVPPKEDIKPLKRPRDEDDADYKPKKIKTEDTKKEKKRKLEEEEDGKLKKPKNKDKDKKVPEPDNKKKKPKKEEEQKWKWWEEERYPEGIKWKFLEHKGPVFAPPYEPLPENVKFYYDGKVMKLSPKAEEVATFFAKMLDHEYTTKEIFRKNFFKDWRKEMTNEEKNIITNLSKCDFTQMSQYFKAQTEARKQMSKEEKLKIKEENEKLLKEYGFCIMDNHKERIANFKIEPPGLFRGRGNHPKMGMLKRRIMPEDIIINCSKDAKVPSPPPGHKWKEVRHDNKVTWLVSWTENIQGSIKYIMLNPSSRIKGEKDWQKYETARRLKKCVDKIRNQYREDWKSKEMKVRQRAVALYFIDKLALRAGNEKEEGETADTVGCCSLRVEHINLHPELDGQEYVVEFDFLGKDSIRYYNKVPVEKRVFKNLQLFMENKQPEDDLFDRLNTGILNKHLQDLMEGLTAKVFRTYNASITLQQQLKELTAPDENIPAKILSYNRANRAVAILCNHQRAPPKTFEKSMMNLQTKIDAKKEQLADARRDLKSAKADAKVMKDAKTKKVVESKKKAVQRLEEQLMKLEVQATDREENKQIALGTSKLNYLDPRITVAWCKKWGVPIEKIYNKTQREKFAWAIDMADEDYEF
Kind of data set: Inhibition of recombinant human topoisomerase 1 assessed as decrease in relaxation/nicking of supercoiled DNA using supercoiled DNA as substrate after 1 hr by ethidium bromide staining based agarose gel electrophoresis analysis. The settings on record: dose microM 1-30, time 1.0 hrs.

The test system of data set [10] is MCF7. Kind of data set: Modulation of DNA replication associated gene expression in human MCF7 cells at 40 uM after 24 hrs by cDNA microarray analysis. In kind it is functional, cell-based.
Data set [11] has as its target DNA topoisomerase 2-alpha (Homo sapiens) (UniProt P11388). Kind of data set: Inhibition of topoisomerase-2alpha in human MCF7 cells nuclear extract assessed as decrease in relaxation/nicking of kinetoplast DNA using kDNA as substrate at 40 uM after 15 mins by ethidium bromide staining based agarose gel electrophoresis analysis. In kind it is subcellular. The settings on record: Nucleus.

Data set [12] concerns the target T1, DNA topoisomerase 1 (Homo sapiens). The data set can be described thus: Inhibition of topoisomerase 1 in human MCF7 cells nuclear extract assessed as decrease in relaxation/nicking of supercoiled DNA using supercoiled DNA as substrate at 40 uM after 1 hr by ethidium bromide staining based agarose gel electrophoresis analysis. The settings on record: Nucleus. In kind it is subcellular.

The test system of data set [13] is MCF7. Kind of data set: Inhibition of colony formation in human MCF7 cells at 10 to 40 uM of compound exposure followed by compound washout and subsequent incubation for 3 weeks by crystal violet staining based assay. The settings on record: dose microM 10-40. In kind it is functional, cell-based.
Data set [14] relates to MCF7. The data set can be described thus: Induction of apoptosis in human MCF7 cells assessed as increase in cleaved caspase-7 protein expression at 20 to 40 uM incubated for 72 hrs by Western blot analysis. The settings on record: dose microM 20-40, time 72.0 hrs. In kind it is functional, cell-based.
The test system of data set [15] is MCF7. The data set can be described thus: Induction of apoptosis in human MCF7 cells incubated for 24 to 72 hrs by Annexin V-FITC/propidium iodide staining-based flow cytometric analysis. In kind it is functional, cell-based. The settings on record: dose microM 20-40, time hrs 24-72.
The test system of a further data set is MCF-10A. The data set can be described thus: Cytotoxicity against human MCF-10A cells assessed as cell viability at 10 uM after 72 hrs by MTT assay. In kind it is cell-based.
Data set [16] has as its system MCF7. Kind of data set: Induction of apoptosis in human MCF7 cells at 20 to 40 uM by Annexin V-FITC/propidium iodide staining-based flow cytometric analysis. In kind it is functional, cell-based. The settings on record: dose microM 20-40, time hrs 24-72, TDE = time-dependent effect.
Data set [17] addresses T1, DNA topoisomerase 1 (Homo sapiens). Kind of data set: Inhibition of recombinant human topoisomerase 1 assessed as decrease in relaxation/nicking of supercoiled DNA using supercoiled DNA as substrate at 3 uM after 1 hr by ethidium bromide staining based agarose gel electrophoresis analysis.
Data set [18] shares this target. The data set can be described thus: Inhibition of recombinant human topoisomerase 1 assessed as decrease in relaxation/nicking of supercoiled DNA using supercoiled DNA as substrate at 10 uM after 1 hr by ethidium bromide staining based agarose gel electrophoresis analysis.
For data set [19], the system named is MCF7. Kind of data set: Induction of apoptosis in human MCF7 cells assessed as increase in cleaved PARP protein expression at 20 to 40 uM incubated for 72 hrs by Western blot analysis. In kind it is functional, cell-based. The settings on record: dose microM 20-40, time 72.0 hrs.

Consider 1 compound from ChEMBL document CHEMBL4665654, “Design, synthesis and evaluation of antiproliferative activity of fluorinated betulinic acid” (Bioorg Med Chem, 2019).

pIC50: −log10 of the molar value. Calls of active or inactive are those of the source. No cut-off for these calls is given here. A value given as a limit tells only on which side of the number the result lay.

Usually pIC50 stands for the IC50 on a negative log10 scale, so that one unit is a factor of ten.

`C=C(C)[C@@H]1CC[C@]2(C(=O)O)CC[C@]3(C)[C@H](CC[C@@H]4[C@@]5(C)CC(F)[C@H](O)C(C)(C)[C@@H]5CC[C@]43C)[C@@H]12` (mixture of isomers): the result in the data set on MCF7 [1], in the data set on MCF7 [7], in the data set with MCF7 [10], in the data set on MCF7 [14] and in the data set on MCF7 [19] was Active. In addition, the pIC50 with A549 is 5.21; in the data set on KB it was 5.19; in the data set with MDA-MB-231, 4.96; in the data set on MCF7 [4] it was 5.04; in data set [8], 5.15. For the same compound, the inhibition result (in data set [2]; in [11]; in data set [12]; with MCF7 [13]; in data set [17]; in data set [18]) was “Active” throughout. Besides, the Activity was greater than 80% in the data set with MCF7 [3], “Dose-dependent effect” in the data set with MCF7 [15], “Non-Toxic” in the data set with MCF-10A and “Tde” with MCF7 [16]. In addition, the inhibition entry in [5] and in data set [9] was “Dose-dependent effect” throughout. Further, the viability at 72 h, 30 µM in data set [6] was 80%.
